# Target: Carbonic anhydrase 1 (Homo sapiens) (UniProt P00915)
# Assay: Activation of […] human carbonic anhydrase-1 incubated for 15 mins prior to testing by stopped-flow CO2 hydrase assay
# Carbonic anhydrase 1 (Homo sapiens), sequence (P00915 2-261 limits assumed): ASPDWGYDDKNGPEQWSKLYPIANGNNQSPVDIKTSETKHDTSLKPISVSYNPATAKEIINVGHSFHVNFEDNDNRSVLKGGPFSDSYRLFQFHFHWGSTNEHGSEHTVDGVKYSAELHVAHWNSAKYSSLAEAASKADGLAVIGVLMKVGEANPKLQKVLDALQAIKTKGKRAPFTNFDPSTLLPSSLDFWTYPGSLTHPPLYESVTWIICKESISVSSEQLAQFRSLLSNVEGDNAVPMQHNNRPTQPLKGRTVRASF
row,KA [µM],SMILES
1,30.7,COC(=O)[C@H](Cc1nc(Br)[nH]c1Br)NC(=O)CCN
2,34.3,COC(=O)[C@H](Cc1nc[nH]c1Cl)NC(=O)CCNC(=O)OC(C)(C)C
3,18.7,COC(=O)[C@H](Cc1nc(I)[nH]c1I)NC(=O)CCNC(=O)OC(C)(C)C
4,21.5,COC(=O)[C@H](Cc1nc(Br)[nH]c1Br)NC(=O)CCNC(=O)OC(C)(C)C
5,2.45,COC(=O)[C@H](Cc1nc(Cl)[nH]c1Cl)NC(=O)OC(C)(C)C
6,4.3,COC(=O)[C@H](Cc1nc[nH]c1I)NC(=O)CCNC(=O)OC(C)(C)C
7,0.96,COC(=O)[C@@H](N)Cc1nc(I)[nH]c1I
8,7.6,COC(=O)[C@H](Cc1nc[nH]c1I)NC(=O)CCN
9,2.6,COC(=O)[C@H](Cc1nc[nH]c1Br)NC(=O)CCNC(=O)OC(C)(C)C
10,0.0012,COC(=O)[C@@H](N)Cc1nc[nH]c1I
11,31.2,COC(=O)[C@@H](N)Cc1nc(Cl)[nH]c1Cl
12,13.6,COC(=O)[C@@H](N)Cc1nc[nH]c1Br
13,10.1,COC(=O)[C@H](Cc1nc[nH]c1Cl)NC(=O)OC(C)(C)C
14,13.3,CC(C)(C)OC(=O)NCCc1nc(Br)[nH]c1Br
15,0.032,COC(=O)[C@H](Cc1nc(Br)[nH]c1Br)NC(=O)OC(C)(C)C
16,29.3,CC(C)(C)OC(=O)NCCc1nc[nH]c1I
17,10.1,COC(=O)[C@H](Cc1nc(Cl)[nH]c1Cl)NC(=O)CCNC(=O)OC(C)(C)C

row,SMILES,KA [µM]
1,NCCc1nc[nH]c1Cl,0.021
2,NCCc1nc(Cl)[nH]c1Cl,0.018

# Target: Carbonic anhydrase 2 (Homo sapiens) (UniProt P00918)
# Assay: Activation of […] human carbonic anhydrase-2 incubated for 15 mins prior to testing by stopped-flow CO2 hydrase assay
row,KA [µM],SMILES
1,4.1,COC(=O)[C@H](Cc1nc(Br)[nH]c1Br)NC(=O)CCN
2,48.5,COC(=O)[C@H](Cc1nc[nH]c1Cl)NC(=O)CCNC(=O)OC(C)(C)C
3,8.2,COC(=O)[C@H](Cc1nc(I)[nH]c1I)NC(=O)CCNC(=O)OC(C)(C)C
4,34.8,COC(=O)[C@H](Cc1nc(Br)[nH]c1Br)NC(=O)CCNC(=O)OC(C)(C)C
5,40.3,COC(=O)[C@H](Cc1nc(Cl)[nH]c1Cl)NC(=O)OC(C)(C)C
6,5.2,COC(=O)[C@H](Cc1nc[nH]c1I)NC(=O)CCNC(=O)OC(C)(C)C
7,1.12,COC(=O)[C@@H](N)Cc1nc(I)[nH]c1I
8,1.6,COC(=O)[C@H](Cc1nc[nH]c1I)NC(=O)CCN
9,0.97,COC(=O)[C@H](Cc1nc[nH]c1Br)NC(=O)CCNC(=O)OC(C)(C)C
10,0.32,COC(=O)[C@@H](N)Cc1nc[nH]c1I
11,10.5,COC(=O)[C@@H](N)Cc1nc(Cl)[nH]c1Cl
12,10.4,COC(=O)[C@@H](N)Cc1nc[nH]c1Br
13,29,COC(=O)[C@H](Cc1nc[nH]c1Cl)NC(=O)OC(C)(C)C
14,28.5,CC(C)(C)OC(=O)NCCc1nc(Br)[nH]c1Br
15,0.96,COC(=O)[C@H](Cc1nc(Br)[nH]c1Br)NC(=O)OC(C)(C)C
16,13.6,CC(C)(C)OC(=O)NCCc1nc[nH]c1I
17,18.6,COC(=O)[C@H](Cc1nc(Cl)[nH]c1Cl)NC(=O)CCNC(=O)OC(C)(C)C

row,SMILES,KA [µM]
1,NCCc1nc[nH]c1Cl,0.115
2,NCCc1nc(Cl)[nH]c1Cl,0.032

# Target: Carbonic anhydrase 7 (Homo sapiens) (UniProt P43166)
# Assay: Activation of […] human carbonic anhydrase-7 incubated for 15 mins prior to testing by stopped-flow CO2 hydrase assay
# Carbonic anhydrase 7 (Homo sapiens), sequence (P43166 whole entry): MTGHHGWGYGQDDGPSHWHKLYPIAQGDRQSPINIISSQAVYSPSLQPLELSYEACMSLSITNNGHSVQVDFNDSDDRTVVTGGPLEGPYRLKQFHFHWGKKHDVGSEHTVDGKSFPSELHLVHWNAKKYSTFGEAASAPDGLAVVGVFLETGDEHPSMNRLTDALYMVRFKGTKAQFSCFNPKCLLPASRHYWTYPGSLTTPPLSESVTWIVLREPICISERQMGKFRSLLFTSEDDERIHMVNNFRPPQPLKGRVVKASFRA
row,KA [µM],SMILES
1,0.0081,COC(=O)[C@H](Cc1nc(Br)[nH]c1Br)NC(=O)CCN
2,12.1,COC(=O)[C@H](Cc1nc[nH]c1Cl)NC(=O)CCNC(=O)OC(C)(C)C
3,0.74,COC(=O)[C@H](Cc1nc(I)[nH]c1I)NC(=O)CCNC(=O)OC(C)(C)C
4,4,COC(=O)[C@H](Cc1nc(Br)[nH]c1Br)NC(=O)CCNC(=O)OC(C)(C)C
5,50.7,COC(=O)[C@H](Cc1nc(Cl)[nH]c1Cl)NC(=O)OC(C)(C)C
6,0.81,COC(=O)[C@H](Cc1nc[nH]c1I)NC(=O)CCNC(=O)OC(C)(C)C
7,3.6,COC(=O)[C@@H](N)Cc1nc(I)[nH]c1I
8,1.06,COC(=O)[C@H](Cc1nc[nH]c1I)NC(=O)CCN
9,5.2,COC(=O)[C@H](Cc1nc[nH]c1Br)NC(=O)CCNC(=O)OC(C)(C)C
10,6.2,COC(=O)[C@@H](N)Cc1nc[nH]c1I
11,24.9,COC(=O)[C@@H](N)Cc1nc(Cl)[nH]c1Cl
12,12.3,COC(=O)[C@@H](N)Cc1nc[nH]c1Br
13,47.6,COC(=O)[C@H](Cc1nc[nH]c1Cl)NC(=O)OC(C)(C)C
14,28.3,CC(C)(C)OC(=O)NCCc1nc(Br)[nH]c1Br
15,13.1,COC(=O)[C@H](Cc1nc(Br)[nH]c1Br)NC(=O)OC(C)(C)C
16,21.5,CC(C)(C)OC(=O)NCCc1nc[nH]c1I
17,0.12,COC(=O)[C@H](Cc1nc(Cl)[nH]c1Cl)NC(=O)CCNC(=O)OC(C)(C)C

row,SMILES,KA [µM]
1,NCCc1nc[nH]c1Cl,15.3
2,NCCc1nc(Cl)[nH]c1Cl,0.041

# Target: Carbonic anhydrase 12 (Homo sapiens) (UniProt O43570)
# Assay: Activation of transmembrane human carbonic anhydrase-12 incubated for 15 mins prior to testing by stopped-flow CO2 hydrase assay
# Carbonic anhydrase 12 (Homo sapiens), sequence (O43570 whole entry): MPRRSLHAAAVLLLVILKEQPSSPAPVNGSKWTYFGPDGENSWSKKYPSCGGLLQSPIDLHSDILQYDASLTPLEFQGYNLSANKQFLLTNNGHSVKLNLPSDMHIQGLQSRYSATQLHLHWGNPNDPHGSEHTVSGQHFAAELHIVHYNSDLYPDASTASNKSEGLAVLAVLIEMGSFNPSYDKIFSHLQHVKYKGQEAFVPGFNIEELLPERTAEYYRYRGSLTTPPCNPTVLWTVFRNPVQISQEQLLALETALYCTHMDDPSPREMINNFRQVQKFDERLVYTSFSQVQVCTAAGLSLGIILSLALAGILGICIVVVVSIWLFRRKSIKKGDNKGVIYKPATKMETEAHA
row,KA [µM],SMILES
1,1.84,COC(=O)[C@H](Cc1nc(Br)[nH]c1Br)NC(=O)CCN
2,2.5,COC(=O)[C@H](Cc1nc[nH]c1Cl)NC(=O)CCNC(=O)OC(C)(C)C
3,40.5,COC(=O)[C@H](Cc1nc(I)[nH]c1I)NC(=O)CCNC(=O)OC(C)(C)C
4,31.6,COC(=O)[C@H](Cc1nc(Br)[nH]c1Br)NC(=O)CCNC(=O)OC(C)(C)C
5,25.3,COC(=O)[C@H](Cc1nc(Cl)[nH]c1Cl)NC(=O)OC(C)(C)C
6,28.7,COC(=O)[C@H](Cc1nc[nH]c1I)NC(=O)CCNC(=O)OC(C)(C)C
7,10.9,COC(=O)[C@@H](N)Cc1nc(I)[nH]c1I
8,40.1,COC(=O)[C@H](Cc1nc[nH]c1I)NC(=O)CCN
9,24.9,COC(=O)[C@H](Cc1nc[nH]c1Br)NC(=O)CCNC(=O)OC(C)(C)C
10,14.3,COC(=O)[C@@H](N)Cc1nc[nH]c1I
11,27.1,COC(=O)[C@@H](N)Cc1nc(Cl)[nH]c1Cl
12,1.01,COC(=O)[C@@H](N)Cc1nc[nH]c1Br
13,42.5,COC(=O)[C@H](Cc1nc[nH]c1Cl)NC(=O)OC(C)(C)C
14,37.4,CC(C)(C)OC(=O)NCCc1nc(Br)[nH]c1Br
15,1.62,COC(=O)[C@H](Cc1nc(Br)[nH]c1Br)NC(=O)OC(C)(C)C
16,44.3,CC(C)(C)OC(=O)NCCc1nc[nH]c1I
17,9.7,COC(=O)[C@H](Cc1nc(Cl)[nH]c1Cl)NC(=O)CCNC(=O)OC(C)(C)C

row,SMILES,KA [µM]
1,NCCc1nc[nH]c1Cl,12.1
2,NCCc1nc(Cl)[nH]c1Cl,5.7

# Target: Carbonic anhydrase 14 (Homo sapiens) (UniProt Q9ULX7)
# Assay: Activation of transmembrane human carbonic anhydrase-14 incubated for 15 mins prior to testing by stopped-flow CO2 hydrase assay
# Carbonic anhydrase 14 (Homo sapiens), sequence (Q9ULX7 whole entry): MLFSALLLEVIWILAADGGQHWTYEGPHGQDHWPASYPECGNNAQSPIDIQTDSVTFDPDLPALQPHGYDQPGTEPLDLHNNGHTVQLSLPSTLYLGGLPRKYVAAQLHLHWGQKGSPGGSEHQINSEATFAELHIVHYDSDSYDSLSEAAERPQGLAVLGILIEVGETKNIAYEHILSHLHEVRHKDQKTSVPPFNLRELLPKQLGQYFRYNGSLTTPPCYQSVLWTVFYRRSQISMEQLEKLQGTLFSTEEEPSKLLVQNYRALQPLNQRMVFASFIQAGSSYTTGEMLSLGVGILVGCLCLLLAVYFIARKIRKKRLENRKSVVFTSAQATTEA
row,KA [µM],SMILES
1,18.9,COC(=O)[C@H](Cc1nc(Br)[nH]c1Br)NC(=O)CCN
2,7.9,COC(=O)[C@H](Cc1nc[nH]c1Cl)NC(=O)CCNC(=O)OC(C)(C)C
3,52.7,COC(=O)[C@H](Cc1nc(I)[nH]c1I)NC(=O)CCNC(=O)OC(C)(C)C
4,40.8,COC(=O)[C@H](Cc1nc(Br)[nH]c1Br)NC(=O)CCNC(=O)OC(C)(C)C
5,1.4,COC(=O)[C@H](Cc1nc(Cl)[nH]c1Cl)NC(=O)OC(C)(C)C
6,24.6,COC(=O)[C@H](Cc1nc[nH]c1I)NC(=O)CCNC(=O)OC(C)(C)C
7,24.3,COC(=O)[C@@H](N)Cc1nc(I)[nH]c1I
8,39.2,COC(=O)[C@H](Cc1nc[nH]c1I)NC(=O)CCN
9,36.5,COC(=O)[C@H](Cc1nc[nH]c1Br)NC(=O)CCNC(=O)OC(C)(C)C
10,7.8,COC(=O)[C@@H](N)Cc1nc[nH]c1I
11,20.6,COC(=O)[C@@H](N)Cc1nc(Cl)[nH]c1Cl
12,5.2,COC(=O)[C@@H](N)Cc1nc[nH]c1Br
13,24.1,COC(=O)[C@H](Cc1nc[nH]c1Cl)NC(=O)OC(C)(C)C
14,29.5,CC(C)(C)OC(=O)NCCc1nc(Br)[nH]c1Br
15,3.51,COC(=O)[C@H](Cc1nc(Br)[nH]c1Br)NC(=O)OC(C)(C)C
16,30.9,CC(C)(C)OC(=O)NCCc1nc[nH]c1I
17,33.5,COC(=O)[C@H](Cc1nc(Cl)[nH]c1Cl)NC(=O)CCNC(=O)OC(C)(C)C

row,SMILES,KA [µM]
1,NCCc1nc[nH]c1Cl,38.7
2,NCCc1nc(Cl)[nH]c1Cl,38.9

# From ChEMBL document CHEMBL3352757, “Mono- and di-halogenated histamine, histidine and carnosine derivatives are potent carbonic anhydrase I, II, VII, XII and XIV activators” (Bioorg Med Chem, 2014)
